Literature values, collected in patent US20060035317A1, “Effect of treatment with 4,5-dihydroxy-2-cyclopenten-1-one (dhcp) on gene expression and quorum-sensing in bacteria” (priority 2002, published 2006).
Read-outs that look alike come from different tables or passages of the source.

Tested on: E. coli (gene expression)
Settings: Wang et al., 2001, cited from earlier work

## c1ccc2[nH]ccc2c1 [indole]
Gene cysK
  Induction of gene by indole: induces
Gene gabT
  Induction of gene by indole: not
